Tested on: DMS 114 tumor spheroids, viability % test/control
Assay: Anticancer human tumor DMS 114 cell line growth inhibition;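 further: spheroids exposed to compounds for 7 days before read-out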;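 on viability, T/C: luminescence used as a proxy for viable cells; 100% = DMSO vehicle control viability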
Settings: spheroids with HUVEC and MSC; for IC50: curve of first compound; for viability, T/C: stronger effect = lower value
Excerpt: Multicellular complex tumor spheroid response to DNA repair inhibitors in combination with DNA-damaging drugs
This study explores the anticancer activities of DNA-damaging drugs and inhibitors of DNA damage repair, both as single agents and in combinations. Complex tumor spheroids comprised of malignant cells, endothelial cells and mesenchymal stem cells served as an in vitro model for human solid tumors. This model system incorporates physiologically relevant features and patient-derived or established malignant cell lines with clinically relevant genetic alterations from many tumor types. Twenty-six patient-derived or established malignant cell lines were evaluated representing sarcoma, melanoma, small cell lung cancer (SCLC), non-small cell lung cancer (NSCLC), as well as bladder, ovarian and pancreatic cancers. The concentration ranges selected for each drug and investigational agent were based upon clinically achievable concentrations if the clinical Cmax of the agent was known.
Compounds. The drugs and compounds olaparib (NSC753686), talazoparib (NSC767125), berzosertib (NSC777718), elimusertib (NSC800525), nedisertib (NSC802822), VX-984 (NSC792969), AZD-1390 (NSC803789), temozolomide (NSC362856), topotecan (NSC609699), trabectedin (NSC813783), staurosporine (NSC755774), and gemcitabine (NSC613327) were obtained from the National Cancer Institute (NCI) Developmental Therapeutics Program Chemical Repository. The FDA-approved anticancer drug set is available from the Developmental Therapeutics Program at https://dtp.cancer.gov/organization/dscb/obtaining/available_plates.htm. […] The stock solutions were prepared in dimethyl sulfoxide (DMSO, Sigma-Aldrich, St. Louis, MO, cat. D2650) at 400-fold the tested concentration and stored at -70 degrees C. Prior to their use, the stock solutions were diluted in fresh medium and the final DMSO concentration in the assay was 0.25% (v/v). All drugs and investigational agents were tested over a range starting from a high concentration at or near the clinical Cmax and decreasing in half-log increments. If the clinical Cmax for an agent had not been determined, the highest concentration tested was 10 microM.
Cell Lines. The patient-derived cancer cell (PDC) lines: 156681-154-R-J1-PDC, 283228-195-R-J1-PDC, 287954-098-R-J1-PDC, 292921-168-R-J2-PDC, 349418-098-R-PDC, 425362-245-T-J1-PDC, 556581-035-R-J1-PDC, and BL0293-F563-PDC were received from the NCI Patient-Derived Models Repository (PDMR, https://pdmr.cancer.gov). The established cell lines HS-SY-2 (RRID:CVCL_8719), MPNST, and SYO-1 (RRID:CVCL_7146) were obtained from the Sloan Kettering Institute. The alveolar soft parts sarcoma cell line ASPS-1 (RRID:CVCL_S738) was established at the NCI and grown from internal seed stocks. The following established cell lines were purchased from the American Type Culture Collection (ATCC, Manassas, VA): G-401 (ATCC, cat. CRL-1441, RRID:CVCL_0270), SW982 (ATCC, cat. HTB-93, RRID:CVCL_1734), VA-ES-BJ (ATCC, cat. CRL-2138, RRID:CVCL_1785), NCI-H719 (ATCC, cat. CRL-5837, RRID:CVCL_1582), NCI-H196 (ATCC, cat. CRL-5823, RRID:CVCL_1509), NCI-H841 (ATCC, cat. CRL-5845, RRID:CVCL_1595), NCI-H1618 (ATCC, cat. CRL-5879, RRID:CVCL_1480), NCI-H1876 (ATCC, cat. CRL-5902, RRID:CVCL_1503), DMS 114 (ATCC, cat. CRL-2066; RRID:CVCL_1174), NCI-H211 (ATCC, cat. CRL-5824; RRID:CVCL_1529), and SW 1271 (ATCC, cat. CRL-2177, RRID:CVCL_1716). The small cell lung cancer cell line COR-L88 was purchased from Sigma-Aldrich (cat. 92031917-1VL, RRID:CVCL_1141). The non-small cell lung cancer cell lines NCI-H226 (RRID:CVCL_1544) and NCI-H322M (RRID:CVCL_1557) were established at the NCI and grown from internal seed stocks. Pooled donor human umbilical vein endothelial cells (HUVEC, Lonza, cat. CC-2519) and human mesenchymal stem cells (hMSC, Lonza, cat. PT-2501) were purchased from Lonza (Walkersville, MD).
Cell Culture. All cells were maintained in an incubator at 37 degrees C and 5% CO2 with 95% humidity. […]

SMILES: CC(C)n1c(=O)n(C)c2cnc3cc(F)c(-c4ccc(OCCCN5CCCCC5)nc4)cc3c21 + CC[C@@]1(O)C(=O)OCc2c1cc1n(c2=O)Cc2cc3c(CN(C)C)c(O)ccc3nc2-1
- IC50 (second compound 0.003 µM): 1950 nM
- IC50 (second compound 0.00949 µM): < 31.6 nM
- IC50 (second compound 0.03 µM): < 31.6 nM
- IC50 (second compound 0.0949 µM): < 31.6 nM
- IC50 (second compound 0.3 µM): < 31.6 nM
- viability, T/C (second compound 0.003 µM, first compound 0.0316 µM): 75.1%
- viability, T/C (second compound 0.003 µM, first compound 0.1 µM): 72.8%
- viability, T/C (second compound 0.003 µM, first compound 0.316 µM): 63.4%
- viability, T/C (second compound 0.003 µM, first compound 1 µM): 61.1%
- viability, T/C (second compound 0.003 µM, first compound 3.16 µM): 43.5%
- viability, T/C (second compound 0.003 µM, first compound 10 µM): 16.7%
- viability, T/C (second compound 0.00949 µM, first compound 0.0316 µM): 37.9%
- viability, T/C (second compound 0.00949 µM, first compound 0.1 µM): 37.9%
- viability, T/C (second compound 0.00949 µM, first compound 0.316 µM): 33.3%
- viability, T/C (second compound 0.00949 µM, first compound 1 µM): 31.3%
- viability, T/C (second compound 0.00949 µM, first compound 3.16 µM): 25%
- viability, T/C (second compound 0.00949 µM, first compound 10 µM): 10.4%
- viability, T/C (second compound 0.03 µM, first compound 0.0316 µM): 24.7%
- viability, T/C (second compound 0.03 µM, first compound 0.1 µM): 24.6%
- viability, T/C (second compound 0.03 µM, first compound 0.316 µM): 23.9%
- viability, T/C (second compound 0.03 µM, first compound 1 µM): 20.2%
- viability, T/C (second compound 0.03 µM, first compound 3.16 µM): 18.2%
- viability, T/C (second compound 0.03 µM, first compound 10 µM): 9.25%
- viability, T/C (second compound 0.0949 µM, first compound 0.0316 µM): 13.6%
- viability, T/C (second compound 0.0949 µM, first compound 0.1 µM): 15.6%
- viability, T/C (second compound 0.0949 µM, first compound 0.316 µM): 11.3%
- viability, T/C (second compound 0.0949 µM, first compound 1 µM): 14.2%
- viability, T/C (second compound 0.0949 µM, first compound 3.16 µM): 11.2%
- viability, T/C (second compound 0.0949 µM, first compound 10 µM): 7.13%
- viability, T/C (second compound 0.3 µM, first compound 0.0316 µM): 9.95%
- viability, T/C (second compound 0.3 µM, first compound 0.1 µM): 9.05%
- viability, T/C (second compound 0.3 µM, first compound 0.316 µM): 9.41%
- viability, T/C (second compound 0.3 µM, first compound 1 µM): 9.97%
- viability, T/C (second compound 0.3 µM, first compound 3.16 µM): 8.36%
- viability, T/C (second compound 0.3 µM, first compound 10 µM): 6.56%

Source: PubChem BioAssay AID1845202 (Molecular Pharmacology Branch, DTP, NCI, 2023)
